The results in this text go back to PubChem BioAssay AID264 (DTP/NCI, 2004).

The structures appear in SMILES notation. Where “and” joins values, the source holds several entries; their conditions need not be identical. Equal values may be shown once. Results filed as inconclusive are left out. Numbered stars: 1 amine (or outer) side, 2 acyl side, 3 side chain; on linkers, the order of the positions; unused ones are H or OH. Bridge positions count the residues as written; N and C are the ends. Square brackets hold non-standard residues; d marks the D form. Peptide text beside a SMILES is read from it. I, II: the chains in the order shown. Actinocin(9to1) = Cc1c2oc3c(C)ccc(C(=O)[*:1])c3nc-2c(C(=O)[*:2])c(N)c1=O; aThr = C[C@H](O)[C@H](N)C(=O)O; NMeV = CN[C@H](C(=O)O)C(C)C; Sar = CNCC(=O)O

The test system of this assay is nude mice, LX-1 lung xenograft intrarenal, tumor weight T/C. Briefly: NCI In Vivo Anticancer Drug Screen. Data for tumor model Human Lung LX-1 Xenograft (intrarenal inoculation) in NU/NU Swiss (nude) mice. The settings on record: endpoint: mean tumor weight change, higher = larger tumour. Put shortly:
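Tumor-bearing mice receive test compound or vehicle; tumor size is then measured in each group. The treated value is divided by the vehicle value to give T/C.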
For orientation: In xenograft studies the graft and the host belong to different species.

[1] abbreviates: dose: 1.0 mg/kg/injection, schedule: Q01DX010 (sc), vehicle: saline.
Setting [2] is: dose: 32.0 mg/kg/injection, schedule: Q01DX010 (sc), vehicle: saline.
Where [3] appears, read: dose: 300.0 mg/kg/injection, schedule: Q04DX003 (sc), vehicle: Klucel (hydroxypropylcellulose) (HPC).
Where [4] appears, read: dose: 600.0 mg/kg/injection, schedule: Q04DX003 (sc), vehicle: Klucel (hydroxypropylcellulose) (HPC).
The mark [5] stands for this setting: dose: 1200.0 mg/kg/injection, schedule: Q04DX003 (sc), vehicle: Klucel (hydroxypropylcellulose) (HPC).
[6] abbreviates: dose: 150.0 mg/kg/injection, schedule: Q04DX003 (sc), vehicle: saline.
Setting [7] is: dose: 50.0 mg/kg/injection, schedule: Q01DX010 (sc), vehicle: Klucel (hydroxypropylcellulose) (HPC).
Where [8] appears, read: dose: 200.0 mg/kg/injection, schedule: Q01DX010 (sc), vehicle: Klucel (hydroxypropylcellulose) (HPC).
Setting [9] is: dose: 400.0 mg/kg/injection, schedule: Q01DX010 (sc), vehicle: Klucel (hydroxypropylcellulose) (HPC).
The mark [10] stands for this setting: dose: 12.5 mg/kg/injection, schedule: Q01DX010 (sc), vehicle: Klucel (hydroxypropylcellulose) (HPC).
[11] abbreviates: dose: 300.0 mg/kg/injection, schedule: Q04DX003 (sc), vehicle: saline.
Where [12] appears, read: dose: 150.0 mg/kg/injection, schedule: Q04DX003 (sc), vehicle: saline with Tween-80.
[13] abbreviates: dose: 300.0 mg/kg/injection, schedule: Q04DX003 (sc), vehicle: saline with Tween-80.
[14] abbreviates: dose: 600.0 mg/kg/injection, schedule: Q04DX003 (sc), vehicle: saline with Tween-80.

Regarding `O=NNc1ccccn1`, the T/C by setting is: (dose: 0.13 mg/kg/injection, schedule: Q01DX010 (sc), vehicle: saline) 120 % of control; (dose: 0.25 mg/kg/injection, schedule: Q01DX010 (sc), vehicle: saline) 309 % of control; (dose: 0.5 mg/kg/injection, schedule: Q01DX010 (sc), vehicle: saline) 211 % of control; under setting [1], 105 % of control; under setting [2], 46 % of control; (dose: 64.0 mg/kg/injection, schedule: Q01DX010 (sc), vehicle: saline) 30 % of control.

On to `COC1C(O)CC(OC2CC(Oc3cc4cc5c(c(O)c4c(O)c3C)C(=O)[C@@H](OC3CC(OC4CC(OC6CC(C)(O)C(OC(C)=O)C(C)O6)C(O)C(C)O4)C(O)C(C)O3)[C@H]([C@H](OC)C(=O)[C@@H](O)[C@@H](C)O)C5)OC(C)C2OC(C)=O)OC1C` (some centres not stated), for which the T/C (dose: 0.3 mg/kg/injection, schedule: Q04DX003 (sc), vehicle: Klucel (hydroxypropylcellulose) (HPC)) was 87 % of control; the T/C (dose: 0.6 mg/kg/injection, schedule: Q04DX003 (sc), vehicle: Klucel (hydroxypropylcellulose) (HPC)) is 68 % of control; the T/C (dose: 1.2 mg/kg/injection, schedule: Q04DX003 (sc), vehicle: Klucel (hydroxypropylcellulose) (HPC)) is 36 % of control.

On to `O=C1[C@H]2CCC[C@H]2[C@H]2CCC[C@@H]12`, for which the T/C (dose: 200.0 mg/kg/injection, schedule: Q04DX003 (sc), vehicle: saline with Tween-80) is 166 % of control; the T/C (dose: 800.0 mg/kg/injection, schedule: Q04DX003 (sc), vehicle: saline with Tween-80) was 120 % of control; the T/C (dose: 1600.0 mg/kg/injection, schedule: Q04DX003 (sc), vehicle: saline with Tween-80) is 98 % of control.

In the case of `COc1cc(C(=O)c2cocc2C(=O)c2ccc3c(c2)OCO3)cc(OC)c1OC`, the T/C under setting [3] is 160 % of control, the T/C under setting [4] is 80 % of control and the T/C under setting [5] is 94 % of control.

Regarding `CN(C)C=O`, the T/C is 91 % of control (dose: 800.0 mg/kg/injection, schedule: Q01DX010 (sc), vehicle: saline) and 74 % of control (dose: 1600.0 mg/kg/injection, schedule: Q01DX010 (sc), vehicle: saline).

Regarding `C[CH2][Ge]1([CH2]C)[CH2]CC2(CCN(CCCN(C)C)C2)C[CH2]1`, the T/C under setting [6] was 89 % of control.

`COc1ccc2nc3cc(Cl)ccc3c(NCCNCCNCCNc3c4ccc(Cl)cc4nc4ccc(OC)cc34)c2c1`: the T/C is, setting by setting: (dose: 12.5 mg/kg/injection, schedule: Q01DX010 (sc), vehicle: saline with Tween-80) 81 % of control; (dose: 50.0 mg/kg/injection, schedule: Q01DX010 (sc), vehicle: saline with Tween-80) 106 % of control; (dose: 200.0 mg/kg/injection, schedule: Q01DX010 (sc), vehicle: saline with Tween-80) 70 % of control; (dose: 400.0 mg/kg/injection, schedule: Q01DX010 (sc), vehicle: saline with Tween-80) 46 % of control.

Turning to `CC1CN=C(c2ccc(NC(=O)c3ccc(C(=O)Nc4ccc(C5=NCC(C)N5)cc4)cc3)cc2)N1` (configuration not stated), the T/C is 213 % of control under setting [7]; 68 % of control (dose: 100.0 mg/kg/injection, schedule: Q01DX010 (sc), vehicle: Klucel (hydroxypropylcellulose) (HPC)); 94 % of control under setting [8]; 84 % of control under setting [9].

`CN(C)N=Nc1ccccc1`: the T/C was 12 % of control under setting [10] and -98 % of control under setting [7].

For `C=C(C)[C@@H]1CCc2c(O)c(O)c(=O)cc(C)c2C1`, the T/C by setting is: under setting [11], 106 % of control; (dose: 600.0 mg/kg/injection, schedule: Q04DX003 (sc), vehicle: saline) 62 % of control; (dose: 1200.0 mg/kg/injection, schedule: Q04DX003 (sc), vehicle: saline) 90 % of control; (dose: 2400.0 mg/kg/injection, schedule: Q04DX003 (sc), vehicle: saline) 85 % of control.

As to `COc1cc([C@@H]2c3cc4c(cc3[C@@H](OC3OC5CO[C@@H](c6cccs6)OC5C(O)C3O)[C@H]3COC(=O)[C@H]23)OCO4)cc(OC)c1O` (some centres not stated), the T/C is, setting by setting: under setting [1], 54 % of control; (dose: 2.0 mg/kg/injection, schedule: Q01DX010 (sc), vehicle: saline) 78 % of control; (dose: 4.0 mg/kg/injection, schedule: Q01DX010 (sc), vehicle: saline) 62 % of control and 78 % of control; (dose: 8.0 mg/kg/injection, schedule: Q01DX010 (sc), vehicle: saline) 62 % of control and 78 % of control; (dose: 16.0 mg/kg/injection, schedule: Q01DX010 (sc), vehicle: saline) 89 % of control; under setting [2], 39 % of control. The T/C is 109 % of control (dose: 33.0 mg/kg/injection, schedule: Q01DX010 (sc), vehicle: saline); 56 % of control (dose: 132.0 mg/kg/injection, schedule: Q01DX010 (sc), vehicle: saline); 88 % of control (dose: 264.0 mg/kg/injection, schedule: Q01DX010 (sc), vehicle: saline).

As to `C[CH2][Ge]([CH2]C)[CH2]C.C[CH2][Ge]([CH2]C)[CH2]C.C[CH2][Ge]([CH2]C)[O][Ge]([CH2]C)[CH2]C`, the T/C was 91 % of control (dose: 75.0 mg/kg/injection, schedule: Q04DX003 (sc), vehicle: saline with Tween-80); 98 % of control under setting [12]; 63 % of control under setting [13]; 114 % of control under setting [14].

As for `COC(=O)Nc1nc2ccc(SC)cc2c(=O)[nH]1`, the T/C is, setting by setting: under setting [3], 93 % of control; under setting [4], 93 % of control; under setting [5], 95 % of control; (dose: 2400.0 mg/kg/injection, schedule: Q04DX003 (sc), vehicle: Klucel (hydroxypropylcellulose) (HPC)) 92 % of control.

Take `Cc1c2oc3c(C)ccc(C(=O)N[C@@H]4C(=O)N[C@H](C(C)C)C(=O)N5CCC[C@H]5C(=O)N(C)CC(=O)N(C)[C@@H](C(C)C)C(=O)O[C@H]4C)c3nc-2c(C(=O)N[C@@H]2C(=O)N[C@H](C(C)C)C(=O)N3CCC[C@H]3C(=O)N(C)CC(=O)N(C)[C@@H](C(C)C)C(=O)O[C@H]2C)c(N)c1=O` (I: [aThr][dV]P[Sar][NMeV] / II: [aThr][dV]P[Sar][NMeV]; ester I:1-I:C, II:1-II:C; linker I:N-II:N via Actinocin(9to1)): the T/C was 13 % of control and 24 % of control (dose: 100.0 micrograms/kg/injection, schedule: Q01DX010 (sc), vehicle: saline); 13 % of control (dose: 200.0 micrograms/kg/injection, schedule: Q01DX010 (sc), vehicle: saline).

As to `CC[C@@H](C)[C@@H]1NC(=O)C(NC(=O)C(CC(C)C)N(C)C(=O)C2CCCN2C(=O)C(C)O)C(C)OC(=O)C(Cc2ccc(OC)cc2)N(C)C(=O)C2CCCN2C(=O)C(CC(C)C)NC(=O)C(C)C(=O)C(C(C)C)OC(=O)C[C@H]1O` (some centres not stated), the T/C is 28 % of control (dose: 75.0 micrograms/kg/injection, schedule: Q04DX003 (sc), vehicle: distilled water + alcohol); 85 % of control and 87 % of control (dose: 600.0 micrograms/kg/injection, schedule: Q04DX003 (sc), vehicle: distilled water + alcohol); 87 % of control (dose: 1200.0 micrograms/kg/injection, schedule: Q04DX003 (sc), vehicle: distilled water + alcohol).

`Cc1ccc(S(=O)(=O)N/N=C/C(=O)O)cc1`: the T/C by setting is: under setting [10], 98 % of control; under setting [7], 37 % of control and 55 % of control; under setting [8], 45 % of control; under setting [9], 58 % of control.

As to `O=P1(NCCCl)OCCCN1CCCl` (configuration not stated), the T/C (dose: 75.0 mg/kg/injection, schedule: Q04DX003 (sc), vehicle: saline) is 93 % of control and the T/C under setting [6] is 109 % of control.

Regarding `C1CNCOC1`, the T/C under setting [11] is 90 % of control.

As to `[I][Hg][CH2]C1COC([CH2][Hg][I])CO1` (configuration not stated), the T/C runs as follows: under setting [12], 105 % of control; under setting [13], 97 % of control; under setting [14], 80 % of control; (dose: 1200.0 mg/kg/injection, schedule: Q04DX003 (sc), vehicle: saline with Tween-80) 97 % of control.

For the compound `COc1cccc2c1C(=O)c1c(O)c3c(c(O)c1C2=O)C[C@@](O)(C(=O)CO)C[C@@H]3OC1CC(N)C(OC)C(C)O1` (some centres not stated), the T/C (dose: 0.75 mg/kg/injection, schedule: Q01DX010 (sc), vehicle: saline) is 29 % of control and the T/C (dose: 3.0 mg/kg/injection, schedule: Q01DX010 (sc), vehicle: saline) was 14 % of control.
